According to US4782069A, “1,4-Dihydropiridines and their use as antithrombotic drugs” (Alter, S.A., priority 1986, dated 1988):

Key:
[1] = tested on: platelet thromboembolism in mice; experiment: "In vivo" thrombosis model in the mouse (collagen + epinephrine i.v.); set-up: species or system CD-1 Charles River male mice; details: suspension in 0.5% carboxymethylcellulose, one to four hours after administration, i.v. 15 ug collagen and 1.8 ug epinephrine
Method: (B) "IN VIVO" THROMBOSIS MODEL (DiMinno, G., Silver, M. J.; J. Pharmacol. Exptl. Ther. 225:57 (1983)).
This is a suitable method for the screening of antithrombotic agents having a primary activity on platelet thormboembolism.
CD-1 Charles River male mice weighing 30 g were used. They received and i.v. injection of 15 ug collagen and 1.8 ug epinephrine in 100 ul of isotonic solution. About the 90% of the animals died or were paralysed for more than 15 minutes.
Drugs were intraperitoneally administered as a suspension in 0.5% carboxymethylcellulose and the protecting effect thereof against thrombosis was measured one to four hours after the administration.

[2] = tested on: human platelets (ADP-induced aggregation); experiment: "In vitro" aggregation on human platelets (PRP), ADP-induced; format: cell-based; details: Platelet, 0.25 h, compound 10^-4 M, 37° C., 15 minutes, 2.5 uM ADP
Method: (§1) (Born, G.V.R., Nature 194:927 (1962)).
(§2) Citrated human blood was used, from which platelet-rich plasma (PRP) was prepared. 450 ul PRP aliquots were incubated at 37° C. with the assayed compounds at a single concentration of 10^-4 M for 15 minutes. Aggregating agents (2 ug/ml collagen and 2.5 uM ADP) were added in a 50 ul volume and the aggregation was measured as optical density decrease in the platelet suspension.

[3] = tested on: human platelets (ATP secretion); experiment: Releasing reaction (ATP secretion from activated platelets), simultaneous to collagen aggregation; format: cell-based; details: Platelet, 0.25 h, human PRP, compound 10^-4 M, 37° C., 15 minutes, 2 ug/ml collagen
Method: as §2

[4] = tested on: human platelets (collagen-induced aggregation); experiment: "In vitro" aggregation on human platelets (PRP), collagen-induced; format: cell-based; details: Platelet, 0.25 h, compound 10^-4 M, 37° C., 15 minutes, 2 ug/ml collagen
Method: as §1, §2

Row | Structure (SMILES) | Protection % ([1]; 30 mg/kg intraperitoneal) [%] | Protection % ([1]; 60 mg/kg intraperitoneal) [%] | inhibition at 100 µM [2] [%] | inhibition at 100 µM [3] [%] | inhibition at 100 µM [4] [%]
1 | OCCN(CCO)c1nc(N2CCCCC2)c2nc(N(CCO)CCO)nc(N3CCCCC3)c2n1 [DIPYRIDAMOL, reference compound] | 30 | 30 | – | – | –
2 | CCOC(=O)C1=C(C)NC(C)=C(C(=O)OCCN2C(=O)c3ccccc3S2(=O)=O)C1C (centres unmarked) [Example 1, 2-{N-(1,2-benzisothiazolyl-3(2H)one-1,1-dioxide)} ethyl 2,6-dimethyl-5-ethoxycarbonyl-4-methyl-1,4-dihydropyridine-3-carboxylate] | 50 | 70 | 12 | 80 | 84
3 | COC(=O)C1=C(C)NC(C)=C(C(=O)OCCN2C(=O)c3ccccc3S2(=O)=O)C1C (centres unmarked) [Example 2, 2-{N-(1,2-benzisothiazolyl-3(2H)one-1,1-dioxide)} ethyl 2,6-dimethyl-4-methyl-5-methoxycarbonyl-1,4-dihydropyridine-3-carboxylate] | 0 | 42 | 20 | 43 | 48
4 | CC1=C(C(=O)OCCNC(=O)c2ccccc2O)C(C)C(C(=O)OCCN2C(=O)c3ccccc3S2(=O)=O)=C(C)N1 (centres unmarked) [Example 3] | 62 | 62 | 15 | 18 | 24
5 | COC(=O)C1=C(C)NC(C)=C(C(=O)OCN2C(=O)c3ccccc3S2(=O)=O)C1C (centres unmarked) [Example 4, {N-(1,2-benzisothiazolyl-3(2H)one-1,1-dioxide)} methyl 2,6-dimethyl-4-methyl-5-methoxycarbonyl-1,4-dihydropyridine-3-carboxylate] | 20 | 20 | 5 | 19 | 14
6 | CCOC(=O)C1=C(C)NC(C)=C(C(=O)OCN2C(=O)c3ccccc3S2(=O)=O)C1C (centres unmarked) [Example 5, {N-(1,2-benzisothiazolyl-3(2H)one-1,1-dioxide)} methyl 2,6-dimethyl-5-ethoxycarbonyl-4-methyl-1,4-dihydropyridine-3-carboxylate] | 30 | 50 | 20 | 51 | 55
7 | CCCCC1C(C(=O)OC)=C(C)NC(C)=C1C(=O)OCCN1C(=O)c2ccccc2S1(=O)=O (centres unmarked) [Example 6, 2-{N-(1,2-benzisothiazolyl-3(2H)one-1,1-dioxide)} ethyl 4-n-butyl-2,6-dimethyl-5-methoxycarbonyl-1,4-dihydropyridine-3-carboxylate] | 12 | 34 | 8 | 29 | 15
